Data: PMC10385664, “Projection of Target Drug Particle Size in Oral Formulations Using the Refined Developability Classification System (rDCS)” (Pharmaceutics, 2023)

How the values were obtained:
[1] = Theoretical IDR from the Levich equation with solubility as input; conditions: FaSSIF V1
From the text: Dissolution/Transit Balance: Derivation of kdiss based on Intrinsic Dissolution Rate In addition to Equation (S1) (utilizing hdisk and Adisk ra ther than hparticle and Apowder), the Levich equation (Equation (S12)) [11] applies for the dissolution from a rotating disk with a constant surface area under sink conditions and the assumption of convective diffusion without reaction as dissolution mechanism:
where IDR is the intrinsic dissolution rate, D is the diffusion coefficient, ν is the kinematic viscosit y, ω is the rotational velocity and CS is the thermodynamic solubility. The equation can be rewritten to estimate the IDR using the rotational speed of the compressed disk in revolutions per minut e (Equation (S13Error!
For this, a unit conversion factor of 30/π must be applied for the conversion of ω in rad∙s–1 to revolutions per minut e (RPM) in min‐1.
The dissolution rate from the disk surface can be calculated via multiplication of the IDR by the disk surface area Adisk (Equation (S14)):
Equation (S1) (adjusted to the dissolution from a disk surface) and Equation (S14) (Levich equation) were equated to obtain Equation (S15).
Rearrangement of Equation (S15) for hdisk results in an equation for the thickness of the aqueous boundary layer (ABL) of the rotating disk (hdisk) under sink conditions (Equation (S16)): […]

[2] = Caco-2 permeability assay (pH 6.5/7.4 gradient, ± elacridar); conditions: human; for recovery at 120 min, 10 µM: Caco-2
Description: (§1) In vitro permeability studies were performed at Cyprotex Discovery Ltd. (Macclesfield, UK) using a high-throughput Caco-2 permeability assay. Permeability at 37 °C was assessed from the apical to basolateral side (A⟹B) and in opposite direction (B⟹A) applying a pH gradient with pH 6.5 in the apical and pH 7.4 in the basolateral compartment (Hanks Balanced Salt Solution, HBSS). After an incubation of 120 min, samples were diluted for analysis via liquid chromatography coupled with tandem mass spectrometry (LC-MS/MS). […] Experiments were performed in absence and presence of the P-glycoprotein (P-gp) inhibitor elacridar (10 µM) to study transporter-mediated efflux effects. The dosing solutions contained the API (10 µM) in HBSS, and DMSO in a concentration of ≤1% v/v. Lucifer yellow (100 µM) was included as fluorescent integrity marker. Further experimental details are provided in Supplementary Materials.
(§2) The apparent permeability coefficients (Papp) were calculated according to Equation (27):(27) Papp=dQ/dt/C0·A where dQ/dt is the permeation rate of the API across the cell monolayer, C0 is the starting concentration of the API in the dosing solution and A is the surface area of the cell monolayer. The efflux ratios (ERs) were calculated from the B⟹A and A⟹B Papp values to estimate whether P-gp mediated efflux was involved in the transport of the APIs. The mass balance (% recovery) was calculated from the sum of the API recovered from the acceptor and donor compartments at the end of the experiment, divided by the initial donor amount.
(§3) Table S6. Gradient of the UPLC method for analysis of lemborexant.
(§4) Table S7. Gradient of the UPLC method for analysis of istradefylline.
(§5) S.2.5. rDCS Standard Investigations: Caco‐2 permeability studies
(§6) Caco‐2 cells were obtained from the American Type Culture Collection (ATCC, Manassas, VA, USA) and used between passage numbers 40 to 60. The cells were seeded onto Millipore Multiscreen Transwell plates at a density of 1 x 10^5 cells/cm2 and cultured in Dulbeccoʹs Modified Eagleʹs Medium (DMEM). The medium was changed every two or three days. Ce l l culture was carried out at 37 °C in an atmosphere of 5 % CO2 with a relative humidity of 95 %. The permeability assay was performed on day 20.
(§7) In vitro permeability was assessed wit h a high‐throughput Caco‐2 permeability assay. The assay was prepared by rinsing apical and basolateral monolayer surfaces twice with Hanks Balanced Salt Solution (HBSS) at the desired pH and 37 °C. Subsequently, cells in the apical and basolateral compartments were incubated with HBSS at the desired pH for 40 min. A pH gradient with pH 6.5 in the apical compartment and pH 7.4 in the basolateral compartment was applied. Dosing solutions containing the API (10 μ M) were prepared by diluting a concentrated API solution in DMS O with HBSS. The final DMSO concentration was ≤ 1% v/v. Lucifer yellow (100 μM) was included in the dosing solution as fluorescent integrity marker. For the assessment of the permeability from the apical to basolateral side (A⟹B), HBSS in the apical compartment was replaced with the dosing solution. The apical inserts were placed into a companion plat e containing fresh buffer with 1% v/ v DMSO. For the assessment of the permeability from the basolateral to […]
(§8) apical side (B⟹A), HBSS was removed from the companion plate and replaced with the solution of drug in HBSS. Fresh HBSS was added to the apical insert, which was then placed into the companion plate.
(§9) Experiments were performed in absence and presence of the P‐glycoprotein (P‐gp) inhibitor elacridar (10 μM) to study transporter‐mediated efflux effects. In those experiments, elacridar was included in both compartments during the equilibration time and assay. The starting concentration (C0) was confirmed by sampling from the dosing solution immediately before dosing into the cell pl ates. After incubation of 120 minutes, the apical inserts and companion plates were separated for sampling from both compartments.

P-gp = experiment: as above; conditions: human, Caco-2, with P-gp inhibitor elacridar 10 µM
Description: as §1, §2, §3, §4, §5, §6, §7, §8, §9

[3] = rDCS standard investigations: D/S ratio, SLAD and rDCS classification
Description: rDCS analysis was performed as described by Rosenberger et al.. […] The An can be calculated according to Equation (30):(30) An=DF·Peff/Rsi·Tsi
The rDCS classification according to the standard investigations was based on the D/S ratios, Peff and SLAD.

[4] = rDCS dissolution rate analysis (kdiss vs kperm) by Rosenberger et al.; conditions: for kdiss: based on IDR, standard particle size 100 µm
From the text: Rosenberger et al. published an equation for kdiss based on the intrinsic dissolution rate (IDR) rather than CS (Equation (9)). Applying the hparticle assumption for larger particles with r0 ≥ 30 µm (hparticle = 30 µm) results in Equation (10). (9) kdiss=kIDR·IDR=3·hdisk/r0^2·ρ·IDR(r0<30 µm, hparticle=r0) (10) kdiss=kIDR·IDR=3·hdisk/r0·hparticle·ρ·IDR(r0≥30 µm, hparticle=30 µm)
In these equations kIDR is the IDR rate constant, which accounts for the solvent kinematic viscosity, rotational speed of the compressed disk, diffusion coefficient, particle size and API density. Therefore, kIDR corrects for differences in experimental conditions that influence the measured IDR value. The ABL thickness of the rotating disk (hdisk) can be estimated according to Equation (11):(11) hdisk=4.98·ν^1/6·D^1/3·RPM^−1/2 where ν is the solvent kinematic viscosity and the stirring rate is expressed as revolutions per minute (RPM). When kdiss is based on the IDR, two modified Dn equations result (Equations (12) and (13)):(12) Dn=3·hdisk/r0^2·ρ·IDR·Tsi(r0<30 µm, hparticle=r0) (13) Dn=3·hdisk/r0·hparticle·ρ·IDR·Tsi(r0≥30 µm, hparticle=30 µm)
The rDCS dissolution rate analysis was conducted according to Rosenberger et al.. For this, kdiss based on the IDR for a standard particle size of 100 µm was calculated (Equation (15)) and compared to kperm (Equation (10)). The kinematic viscosity of the medium (0.00696 cm^2/s), aqueous diffusion coefficient (predicted with ADMET Predictor version 9), stirring rate (100 rpm), initial particle size (100 µm), API density (predicted with ACD/Labs Release 2021.1.2), and measured IDR were used to calculate kdiss. Predicted diffusion coefficients and API densities can be found in Supplementary Materials. The estimated Peff, degree of flatness (1.7) and small intestinal radius (2 cm) were used for the calculation of kperm.

Caco-2 cells = experiment: Caco-2 permeability assay (pH 6.5/7.4 gradient, ± elacridar)
Description: as §1, §2, §3, §4, §5, §6, §7, §8, §9

[5] = method not disclosed; cited from earlier work
[6] = Caco-2, Papp(A⟹B), Caco-2, 10 µM, apical pH 6.5 / basolateral pH 7.4, 120 min, without inhibitor
[7] = Caco-2, Papp(B⟹A), Caco-2, without inhibitor
[8] = Caco-2, with elacridar 10 µM, Papp(A⟹B) + inhibitor
[9] = Caco-2, with elacridar 10 µM, Papp(B⟹A) + inhibitor
[10] = from estimated Peff, DF 1.7, Rsi 2 cm

Structure (SMILES)	theoretical IDR (Levich equation with CS as input) [1]	recovery at 120 min, 10 µM [2]	Papp at 120 min, 10 µM [2, 6]	Papp at 120 min, 10 µM [2, 7]	Papp at 120 min, 10 µM (P-gp; [8])	Papp at 120 min, 10 µM (P-gp; [9])	SLAD (solubility-limited absorbable dose) [3]	kdiss [4]	kperm [4, 10]	permeability assessment (Caco-2 cells; against antipyrine, propranolol and atenolol as comparators)	Papp at 120 min, 10 µM (P-gp; Caco-2, Papp(A⟹B) + inhibitor)	Papp at 120 min, 10 µM (P-gp; Caco-2, Papp(B⟹A) + inhibitor)	Literature logP [5]	permeability assessment (Caco-2 cells; Caco-2)	kdiss for r = 100 µm ([4]; Excel template)	kperm ([4]; Excel template)
CCn1c(=O)c2c(nc(/C=C/c3ccc(OC)c(OC)c3)n2C)n(CC)c1=O [Istradefylline, istradefylline]	0.346 ± 0.005 µg/min/cm^2	> 85%	30.2 ± 1.2 ×10⁻⁶ cm/s	28.3 ± 16 ×10⁻⁶ cm/s	31.2 ± 1.1 ×10⁻⁶ cm/s	43.7 ± 18.5 ×10⁻⁶ cm/s	8.50 mg	4.55e-07 s⁻¹	0.0238 min⁻¹							
Cc1ncc(OC[C@@]2(c3cccc(F)c3)C[C@H]2C(=O)Nc2ccc(F)cn2)c(C)n1 [Lemborexant, lemborexant]	2.24 ± 0.01 µg/min/cm^2	> 74%	26.7 ± 1.2 ×10⁻⁶ cm/s	41.8 ± 1.2 ×10⁻⁶ cm/s			49.6 mg	3e-06 s⁻¹	0.0214 min⁻¹	highly permeable	24.2 ± 0.7 ×10⁻⁶ cm/s	39 ± 0.4 ×10⁻⁶ cm/s	3.70 [33]			
C[C@@H](c1ncncc1F)[C@](O)(Cn1cncn1)c1ccc(F)cc1F [Voriconazole, voriconazole]		> 87%	27.3 ± 1.7 ×10⁻⁶ cm/s	43.5 ± 0.9 ×10⁻⁶ cm/s	24 ± 1 ×10⁻⁶ cm/s	40.4 ± 1.1 ×10⁻⁶ cm/s	1810 mg	0.000126 s⁻¹	0.0219 min⁻¹				1.80 [32]	high permeability	0.000126 s⁻¹	0.02193 min⁻¹
